Tests used:
Assay type in all cases: cell-based
[1] = test system: Colorectal cell lines KM 12 (harboring endogenous TPM3-TRKA fusion gene); assay: Cell proliferation assay, KM12 cells (CellTiter-Glo); details: Homo sapiens, 72 hours incubation
Experimental: (§1) Cell Proliferation Assays.
Colorectal cell lines KM 12 (harboring endogenous TPM3-TRKA fusion gene) cells were cultured in DMEM medium, supplemented with 10% fetal bovine serum and 100 U/mL of penicillin/streptomycin. 5000 cells were seeded in 384 well white plate for 24 hours before compounds treatment. Cell proliferation was measured using CellTiter-Glo luciferase-based ATP detection assay (Promega) following the manufactures's protocol after 72 hours incubation. IC50 determinations were performed using GraphPad Prism software (GraphPad, Inc., San Diego, Calif.). […] 5000 cells were seeded in 384 well white plate for 24 hours before compounds treatment. Cell proliferation was measured using CellTiter-Glo luciferase-based ATP detection assay (Promega) following the manufactures's protocol after 72 hours incubation. IC50 determinations were performed using GraphPad Prism software (GraphPad, Inc., San Diego, Calif.).

[2] = test system: T cell lymphoma Karpas-299 cell line (harboring endogenous NPM-ALK fusion gene); assay: Cell proliferation assay, Karpas-299 cells (CellTiter-Glo); details: Homo sapiens, 72 hours incubation
Experimental: as §1
(§2) Colorectal cell lines KM 12 (harboring endogenous TPM3-TRKA fusion gene) cells were cultured in DMEM medium, supplemented with 10% fetal bovine serum and 100 U/mL of penicillin/streptomycin. 5000 cells were seeded in 384 well white plate for 24 hours before compounds treatment. Cell proliferation was measured using CellTiter-Glo luciferase-based ATP detection assay (Promega) following the manufactures's protocol after 72 hours incubation. IC50 determinations were performed using GraphPad Prism software (GraphPad, Inc., San Diego, Calif.). Alternatively, essential thrombocythemia cell line SET-2 cells (harboring endogenous JAK2 […] point mutation) or T cell lymphoma Karpas-299 cell line (harboring endogenous NPM-ALK fusion gene) were cultured in RPMI medium, supplemented with 10% fetal bovine serum and 100 U/mL of penicillin/streptomycin. 5000 cells were seeded in 384 well white plate for 24 hours before compounds treatment. Cell proliferation was measured using CellTiter-Glo luciferase-based ATP detection assay (Promega) following the manufactures's protocol after 72 hours incubation. IC50 determinations were performed using GraphPad Prism software (GraphPad, Inc., San Diego, Calif.).

[3] = test system: essential thrombocythemia cell line SET-2 cells (harboring endogenous JAK2 point mutation); assay: Cell proliferation assay, SET-2 cells (CellTiter-Glo); details: Homo sapiens, 72 hours incubation, read-out: Cell Proliferation IC50 SET2
Experimental: as §1, §2

EML4-ALK Ba/F3 = biological target: T1, EML4-ALK Ba/F3 (Homo sapiens, UniProt Q9UM73); assay: Cell proliferation assay, EML4-ALK Ba/F3 stable cell line (CellTiter-Glo); details: Ba/F3-EML4-ALK wild type (variant 1) cells, 72 hours compound incubation; read-out: Cell Proliferation IC50 EML4-ALK Ba/F3
T1 construct: fused on or other part: Q9HC35 (Echinoderm microtubule-associated protein-like 4)
Text: (§3) Creation of CD74-ROS1 and EML4-ALK Ba/F3 Stable Cell Lines and Cell Proliferation Assays.
(§4) The CD74-ROS1 wild-type gene and EML4-ALK wild-type gene (variant 1) were synthesized at GenScript and cloned into pCDH-CMV-MCS-EF1-Puro plasmid (System Biosciences, Inc). Ba/F3-CD74-ROS1 and Ba/F3-EML4-ALK wild type cell lines were generated by infecting Ba/F3 cells with lentivirus containing CD74-ROS1 wide-type and EML4-ALK wild type. Stable cell lines were selected by puromycin treatment, followed by IL-3 withdrawal. 3000 cells were seeded in 384 well white plate overnight before compound treatment. Cell proliferation was measured using CellTiter-Glo luciferase-based ATP detection assay (Promega) following the manufactures's protocol after 72 hours of various concentration of compound incubation. IC50 determinations were performed using GraphPad Prism software (GraphPad, Inc., San Diego, Calif.).

CD74-ROS1 Ba/F3 = biological target: T2, CD74-ROS1 Ba/F3 (Homo sapiens, UniProt P08922); assay: Cell proliferation assay, CD74-ROS1 Ba/F3 stable cell line (CellTiter-Glo); details: Ba/F3-CD74-ROS1 wild type cells, 72 hours compound incubation; read-out: Cell Proliferation IC50 CD74-ROS1 Ba/F3
T2 construct: fused on or other part: P04233 (HLA class II histocompatibility antigen gamma chain)
Text: as §3, §4

T1 sequence (Q9UM73 whole entry, change not shown, the tested form may be a part): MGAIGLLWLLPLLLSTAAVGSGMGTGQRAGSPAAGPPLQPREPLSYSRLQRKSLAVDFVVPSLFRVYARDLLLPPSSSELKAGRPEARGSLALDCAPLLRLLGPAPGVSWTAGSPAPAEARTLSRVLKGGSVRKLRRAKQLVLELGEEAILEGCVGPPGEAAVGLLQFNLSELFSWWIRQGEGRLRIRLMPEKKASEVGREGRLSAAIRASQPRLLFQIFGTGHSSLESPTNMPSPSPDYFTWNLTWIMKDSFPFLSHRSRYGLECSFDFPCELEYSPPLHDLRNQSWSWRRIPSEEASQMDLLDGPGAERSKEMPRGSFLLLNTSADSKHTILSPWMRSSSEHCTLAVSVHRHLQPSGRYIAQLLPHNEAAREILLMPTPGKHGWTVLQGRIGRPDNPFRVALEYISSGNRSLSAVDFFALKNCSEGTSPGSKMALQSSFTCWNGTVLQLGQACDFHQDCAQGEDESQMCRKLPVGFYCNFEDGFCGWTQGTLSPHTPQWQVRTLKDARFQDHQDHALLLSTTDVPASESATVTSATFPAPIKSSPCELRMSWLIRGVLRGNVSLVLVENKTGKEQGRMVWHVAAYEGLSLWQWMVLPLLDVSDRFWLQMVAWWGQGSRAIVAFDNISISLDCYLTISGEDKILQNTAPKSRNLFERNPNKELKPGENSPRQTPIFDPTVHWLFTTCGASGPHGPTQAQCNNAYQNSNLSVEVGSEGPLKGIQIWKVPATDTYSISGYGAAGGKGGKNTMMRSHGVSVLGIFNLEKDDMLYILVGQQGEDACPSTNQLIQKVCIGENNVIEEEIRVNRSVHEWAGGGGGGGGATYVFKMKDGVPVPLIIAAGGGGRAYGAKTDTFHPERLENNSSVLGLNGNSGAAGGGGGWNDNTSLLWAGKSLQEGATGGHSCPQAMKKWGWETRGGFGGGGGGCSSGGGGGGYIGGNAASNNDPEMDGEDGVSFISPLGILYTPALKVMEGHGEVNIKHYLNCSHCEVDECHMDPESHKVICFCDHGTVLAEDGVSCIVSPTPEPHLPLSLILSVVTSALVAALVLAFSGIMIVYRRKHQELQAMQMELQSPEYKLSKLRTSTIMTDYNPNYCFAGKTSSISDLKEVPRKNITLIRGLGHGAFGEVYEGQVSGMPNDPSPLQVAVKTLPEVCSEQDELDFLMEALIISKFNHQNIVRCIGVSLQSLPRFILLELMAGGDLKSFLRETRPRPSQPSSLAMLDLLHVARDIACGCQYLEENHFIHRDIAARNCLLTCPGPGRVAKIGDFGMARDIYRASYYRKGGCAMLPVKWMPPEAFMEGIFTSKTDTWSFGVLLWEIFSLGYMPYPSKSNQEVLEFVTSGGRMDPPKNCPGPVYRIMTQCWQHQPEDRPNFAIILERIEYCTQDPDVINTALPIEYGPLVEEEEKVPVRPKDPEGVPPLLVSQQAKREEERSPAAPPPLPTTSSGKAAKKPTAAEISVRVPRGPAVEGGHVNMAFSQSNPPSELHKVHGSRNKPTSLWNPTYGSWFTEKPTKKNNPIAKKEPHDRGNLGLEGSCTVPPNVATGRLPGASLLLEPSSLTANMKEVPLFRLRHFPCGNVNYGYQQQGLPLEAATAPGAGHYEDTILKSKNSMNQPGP
T2 sequence (P08922 whole entry, change not shown, the tested form may be a part): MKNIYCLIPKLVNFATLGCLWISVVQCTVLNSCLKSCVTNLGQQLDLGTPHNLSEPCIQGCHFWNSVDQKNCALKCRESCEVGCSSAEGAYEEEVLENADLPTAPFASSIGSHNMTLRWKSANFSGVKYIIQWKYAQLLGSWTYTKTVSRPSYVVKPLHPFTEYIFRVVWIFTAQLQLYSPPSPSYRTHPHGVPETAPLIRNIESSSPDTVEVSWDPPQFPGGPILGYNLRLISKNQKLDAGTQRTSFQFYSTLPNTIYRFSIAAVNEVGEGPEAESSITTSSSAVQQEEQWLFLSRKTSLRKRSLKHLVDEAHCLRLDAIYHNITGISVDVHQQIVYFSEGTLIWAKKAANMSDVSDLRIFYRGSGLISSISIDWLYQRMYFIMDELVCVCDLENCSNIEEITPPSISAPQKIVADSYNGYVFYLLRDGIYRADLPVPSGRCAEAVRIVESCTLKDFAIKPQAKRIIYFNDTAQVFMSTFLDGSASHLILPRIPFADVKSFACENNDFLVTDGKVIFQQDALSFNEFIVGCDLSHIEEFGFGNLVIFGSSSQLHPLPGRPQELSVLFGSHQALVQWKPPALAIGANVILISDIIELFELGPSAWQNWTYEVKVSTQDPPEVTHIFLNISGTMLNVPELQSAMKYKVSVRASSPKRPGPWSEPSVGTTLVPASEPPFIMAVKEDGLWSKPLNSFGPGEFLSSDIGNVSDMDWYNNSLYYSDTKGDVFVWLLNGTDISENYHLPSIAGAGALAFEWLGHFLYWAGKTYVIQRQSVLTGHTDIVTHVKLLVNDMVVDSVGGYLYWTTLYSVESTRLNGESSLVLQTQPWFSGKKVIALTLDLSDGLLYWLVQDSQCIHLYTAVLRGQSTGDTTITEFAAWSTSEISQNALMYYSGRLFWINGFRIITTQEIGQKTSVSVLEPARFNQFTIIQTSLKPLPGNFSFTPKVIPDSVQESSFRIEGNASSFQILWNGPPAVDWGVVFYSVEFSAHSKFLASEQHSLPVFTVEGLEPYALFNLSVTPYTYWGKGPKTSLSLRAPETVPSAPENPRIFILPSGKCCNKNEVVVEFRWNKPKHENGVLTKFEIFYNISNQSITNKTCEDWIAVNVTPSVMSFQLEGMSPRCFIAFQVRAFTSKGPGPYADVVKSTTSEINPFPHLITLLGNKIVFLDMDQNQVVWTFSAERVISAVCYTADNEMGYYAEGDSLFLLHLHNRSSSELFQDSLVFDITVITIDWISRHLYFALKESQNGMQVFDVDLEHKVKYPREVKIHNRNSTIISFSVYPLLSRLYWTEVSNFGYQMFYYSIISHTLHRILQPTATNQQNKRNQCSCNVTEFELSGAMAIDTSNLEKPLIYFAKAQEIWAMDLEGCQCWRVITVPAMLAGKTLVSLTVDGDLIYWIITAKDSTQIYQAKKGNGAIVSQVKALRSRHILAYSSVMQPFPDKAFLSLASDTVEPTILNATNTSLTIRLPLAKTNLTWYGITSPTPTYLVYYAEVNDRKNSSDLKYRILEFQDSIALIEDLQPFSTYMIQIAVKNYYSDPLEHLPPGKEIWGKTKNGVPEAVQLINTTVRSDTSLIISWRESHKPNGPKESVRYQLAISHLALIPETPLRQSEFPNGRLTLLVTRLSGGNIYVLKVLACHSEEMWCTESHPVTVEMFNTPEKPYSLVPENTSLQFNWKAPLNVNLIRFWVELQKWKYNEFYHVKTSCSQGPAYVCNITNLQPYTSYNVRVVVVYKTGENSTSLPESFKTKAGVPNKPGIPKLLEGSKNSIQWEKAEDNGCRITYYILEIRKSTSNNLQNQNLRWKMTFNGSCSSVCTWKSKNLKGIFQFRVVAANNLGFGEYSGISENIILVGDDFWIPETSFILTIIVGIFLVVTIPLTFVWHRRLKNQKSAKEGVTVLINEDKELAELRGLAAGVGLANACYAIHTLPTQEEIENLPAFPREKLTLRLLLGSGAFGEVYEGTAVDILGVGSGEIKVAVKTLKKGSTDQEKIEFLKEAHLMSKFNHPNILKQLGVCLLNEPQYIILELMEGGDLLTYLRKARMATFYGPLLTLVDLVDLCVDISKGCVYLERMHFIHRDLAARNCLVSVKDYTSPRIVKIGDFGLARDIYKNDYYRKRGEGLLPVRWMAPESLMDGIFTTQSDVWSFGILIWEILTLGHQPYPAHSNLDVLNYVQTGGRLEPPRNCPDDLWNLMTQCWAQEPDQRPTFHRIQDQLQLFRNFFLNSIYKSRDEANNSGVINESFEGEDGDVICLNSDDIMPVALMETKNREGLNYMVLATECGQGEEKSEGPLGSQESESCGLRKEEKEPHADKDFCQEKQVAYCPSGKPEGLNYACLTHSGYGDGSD

IC50 [2] | GI50 (EML4-ALK Ba/F3) | GI50 (CD74-ROS1 Ba/F3) | SMILES | IC50 [1] | IC50 [3]
0.083 µM | 0.138 µM | 0.0002 µM | CC[C@H]1CNC(=O)c2cnn3ccc(nc23)N[C@H](C)c2cc(F)ccc2O1 [Compound 3, (7S,13R)-7-ethyl-11-fluoro-13-methyl-6,7,13,14-tetrahydro-1,15-ethenopyrazolo[4,3-f][1,4,8,10]benzoxatriazacyclotridecin-4(5H)-one] | 0.0003 µM | 0.263 µM
1.37 µM | 0.892 µM | 0.0002 µM | CC[C@H]1COc2ccc(F)cc2[C@@H](C)Nc2ccn3ncc(c3n2)C(=O)N1 [Compound 4, (6S,13R)-6-ethyl-11-fluoro-13-methyl-6,7,13,14-tetrahydro-1,15-ethenopyrazolo[4,3-f][1,4,8,10]benzoxatriazacyclotridecin-4(5H)-one] | 0.0003 µM | 1.37 µM
0.794 µM | 2.03 µM | 0.0279 µM | C[C@H]1Nc2ccn3ncc(c3n2)C(=O)NC[C@H](CO)Oc2ccc(F)cc21 [Compound 5, (7R,13R)-11-fluoro-7-(hydroxymethyl)-13-methyl-6,7,13,14-tetrahydro-1,15-ethenopyrazolo[4,3-f][1,4,8,10]benzoxatriazacyclotridecin-4(5H)-one] | 0.0165 µM | 0.852 µM
0.065 µM | 0.116 µM | 0.0028 µM | C[C@H]1Nc2ccn3ncc(c3n2)C(=O)N[C@@H](CO)COc2ccc(F)cc21 [Compound 6, (6S,13R)-11-fluoro-6-(hydroxymethyl)-13-methyl-6,7,13,14-tetrahydro-1,15-ethenopyrazolo[4,3-f][1,4,8,10]benzoxatriazacyclotridecin-4(5H)-one] | 0.0005 µM | 0.164 µM
0.438 µM | 0.715 µM | 0.0226 µM | C[C@H]1Nc2ccn3ncc(c3n2)C(=O)NC[C@@H](CO)Oc2ccc(F)cc21 [Compound 7, (7S,13R)-11-fluoro-7-(hydroxymethyl)-13-methyl-6,7,13,14-tetrahydro-1,15-ethenopyrazolo[4,3-f][1,4,8,10]benzoxatriazacyclotridecin-4(5H)-one] | 0.0168 µM | 0.19 µM
1.5 µM | 2.13 µM | 0.0347 µM | C[C@H]1Nc2ccn3ncc(c3n2)C(=O)N[C@H](CO)COc2ccc(F)cc21 [Compound 8, (6R,13R)-11-fluoro-6-(hydroxymethyl)-13-methyl-6,7,13,14-tetrahydro-1,15-ethenopyrazolo[4,3-f][1,4,8,10]benzoxatriazacyclotridecin-4(5H)-one] | 0.017 µM | 0.406 µM
0.073 µM | 0.0002 µM | 0.0002 µM | C[C@H]1Nc2ccn3ncc(c3n2)C(=O)NC[C@H](CF)Oc2ccc(F)cc21 [Compound 9, (7R,13R)-11-fluoro-7-(fluoromethyl)-13-methyl-6,7,13,14-tetrahydro-1,15-ethenopyrazolo[4,3-f][1,4,8,10]benzoxatriazacyclotridecin-4(5H)-one] | 0.0004 µM | 0.093 µM
0.08 µM | 0.0963 µM | 0.0002 µM | C[C@H]1Nc2ccn3ncc(c3n2)C(=O)NC[C@@H](CF)Oc2ccc(F)cc21 [Compound 10, (7S,13R)-11-fluoro-7-(fluoromethyl)-13-methyl-6,7,13,14-tetrahydro-1,15-ethenopyrazolo[4,3-f][1,4,8,10]benzoxatriazacyclotridecin-4(5H)-one] | 0.0014 µM | 0.057 µM
0.59 µM | 2.43 µM | 0.0189 µM | C[C@H]1Nc2ccn3ncc(c3n2)C(=O)N[C@H](CF)COc2ccc(F)cc21 [Compound 11, (6S,13R)-11-fluoro-6-(fluoromethyl)-13-methyl-6,7,13,14-tetrahydro-1,15-ethenopyrazolo[4,3-f][1,4,8,10]benzoxatriazacyclotridecin-4(5H)-one] | 0.002 µM | 0.187 µM
2.27 µM | 5.09 µM | 0.13 µM | C[C@H]1Nc2ccn3ncc(c3n2)C(=O)NC[C@H](CN(C)C)Oc2ccc(F)cc21 [Compound 12, (7R,13R)-7-[(dimethylamino)methyl]-11-fluoro-13-methyl-6,7,13,14-tetrahydro-1,15-ethenopyrazolo[4,3-f][1,4,8,10]benzoxatriazacyclotridecin-4(5H)-one] | 0.042 µM | 1.96 µM
3.21 µM | 1.48 µM | 0.112 µM | C[C@H]1Nc2ccn3ncc(c3n2)C(=O)N[C@@H](CN(C)C)COc2ccc(F)cc21 [Compound 13, (6S,13R)-6-[(dimethylamino)methyl]-11-fluoro-13-methyl-6,7,13,14-tetrahydro-1,15-ethenopyrazolo[4,3-f][1,4,8,10]benzoxatriazacyclotridecin-4(5H)-one] | 0.069 µM | 4.03 µM
> 10 µM | > 10 µM | 0.3 µM | CNC(=O)[C@@H]1CNC(=O)c2cnn3ccc(nc23)N[C@H](C)c2cc(F)ccc2O1 [Compound 14, (7S,13R)-7-(N-methylcarboxamide)-11-fluoro-13-methyl-6,7,13,14-tetrahydro-1,15-ethenopyrazolo[4,3-f][1,4,8,10]benzoxatriazacyclotridecin-4(5H)-one] | 0.18 µM | 3.78 µM
> 10 µM | > 10 µM | 1 µM | CNC(=O)[C@H]1CNC(=O)c2cnn3ccc(nc23)N[C@H](C)c2cc(F)ccc2O1 [Compound 15, (7R,13R)-7-(N-methylcarboxamide)-11-fluoro-13-methyl-6,7,13,14-tetrahydro-1,15-ethenopyrazolo[4,3-f][1,4,8,10]benzoxatriazacyclotridecin-4(5H)-one] | 0.16 µM | 4.79 µM
0.47 µM | 1.91 µM | 0.112 µM | C[C@H]1Nc2ccn3ncc(c3n2)C(=O)N[C@@H](C(F)F)COc2ccc(F)cc21 [Compound 16, (6R,13R)-6-(difluoromethyl)-11-fluoro-13-methyl-6,7,13,14-tetrahydro-1,15-ethenopyrazolo[4,3-f][1,4,8,10]benzoxatriazacyclotridecin-4(5H)-one] | 0.0004 µM | 0.665 µM
0.297 µM | 2.69 µM | 0.003 µM | C[C@H]1Nc2ccn3ncc(c3n2)C(=O)N[C@H](C(F)F)COc2ccc(F)cc21 [Compound 17, (6S,13R)-6-(difluoromethyl)-11-fluoro-13-methyl-6,7,13,14-tetrahydro-1,15-ethenopyrazolo[4,3-f][1,4,8,10]benzoxatriazacyclotridecin-4(5H)-one] | 0.0002 µM | 0.005 µM
0.0247 µM | 0.0284 µM | 0.0002 µM | C[C@H]1Nc2ccn3ncc(c3n2)C(=O)NC[C@H](C(F)F)Oc2ccc(F)cc21 [Compound 18, (7R,13R)-7-(difluoromethyl)-11-fluoro-13-methyl-6,7,13,14-tetrahydro-1,15-ethenopyrazolo[4,3-f][1,4,8,10]benzoxatriazacyclotridecin-4(5H)-one] | 0.0002 µM | 0.0986 µM
0.193 µM | 0.406 µM | 0.0005 µM | CC[C@H]1Nc2ccn3ncc(c3n2)C(=O)NCCOc2ccc(F)cc21 [Compound 19, (13R)-13-ethyl-11-fluoro-6,7,13,14-tetrahydro-1,15-ethenopyrazolo[4,3-f][1,4,8,10]benzoxatriazacyclotridecin-4(5H)-one] | 0.0006 µM | 0.294 µM

Reference: patent US11008337B2, “Chiral diaryl macrocycles as modulators of protein kinases” (Turning Point Therapeutics, Inc., priority 2015, dated 2021)
